# Experimental data from patent US20020103398A1, “2-Amino-2-alky-4 heptenoic and heptynoic acid derivatives useful as nitric oxide synthase inhibitors” (priority 2000, published 2002).
# Counter-ions that a name gives are not always drawn.
# Columns and labels:
# Type in all cases: biochemical
# [1] = biological target: T1, human endothelial constitutive NOS (hecNOS) (Homo sapiens, UniProt P29474); test: Citrulline assay for nitric oxide synthase (hecNOS); settings: recombinant enzyme from Sf9 cells; 30 μM L-arginine; calmodulin 40-100 nM; 37° C., 15 minutes
# T1 construct: made in house; host or cells: Sf9 insect cells, baculovirus vector
# Description: (§1) Nitric oxide synthase (NOS) activity can be measured by monitoring the conversion of L-[2,3-^3H]-arginine to L-[2,3-^3H]-citrulline (Bredt and Snyder, Proc. Natl. Acad. Sci. U.S.A., 87, 682-685, 1990 and Moore et al, J. Med. Chem. 39, 669-672, 1996). Human inducible NOS (hiNOS), human endothelial constitutive NOS (hecNOS) and human neuronal constitutive NOS (hncNOS) are each cloned from RNA extracted from human tissue. The cDNA for human inducible NOS (hiNOS) is isolated from a λcDNA library made from RNA extracted from a colon sample from a patient with ulcerative colitis. The cDNA for human endothelial constitutive NOS (hecNOS) is isolated from a λcDNA library made from RNA extracted from human umbilical vein endothelial cells (HUVEC) and the cDNA for human neuronal constitutive NOS (hncNOS) is isolated from a λcDNA library made from RNA extracted from human cerebellum obtained from a cadaver. […] After mixing the resin is allowed to settle and L-[2,3-^3H]-Citrulline formation is determined by counting aliquots of the supernatant with a liquid scintillation counter. IC50 values can be determined by testing each compound at several concentrations. […]
# [2] = biological target: T2, human neuronal constitutive NOS (hncNOS) (Homo sapiens, UniProt P29475); test: Citrulline assay for nitric oxide synthase (hncNOS); settings: recombinant enzyme from Sf9 cells; 30 μM L-arginine; calmodulin 40-100 nM; 37° C., 15 minutes
# T2 construct: made in house; host or cells: Sf9 insect cells, baculovirus vector
# Description: as §1
# [3] = biological target: T3, Human inducible NOS (hiNOS) (Homo sapiens, UniProt P35228); test: Citrulline assay for nitric oxide synthase (hiNOS); settings: recombinant enzyme from Sf9 cells; 30 μM L-arginine; 37° C., 15 minutes
# T3 construct: made in house; host or cells: Sf9 insect cells, baculovirus vector
# Description: as §1
# T1 sequence (P29474 2-1203): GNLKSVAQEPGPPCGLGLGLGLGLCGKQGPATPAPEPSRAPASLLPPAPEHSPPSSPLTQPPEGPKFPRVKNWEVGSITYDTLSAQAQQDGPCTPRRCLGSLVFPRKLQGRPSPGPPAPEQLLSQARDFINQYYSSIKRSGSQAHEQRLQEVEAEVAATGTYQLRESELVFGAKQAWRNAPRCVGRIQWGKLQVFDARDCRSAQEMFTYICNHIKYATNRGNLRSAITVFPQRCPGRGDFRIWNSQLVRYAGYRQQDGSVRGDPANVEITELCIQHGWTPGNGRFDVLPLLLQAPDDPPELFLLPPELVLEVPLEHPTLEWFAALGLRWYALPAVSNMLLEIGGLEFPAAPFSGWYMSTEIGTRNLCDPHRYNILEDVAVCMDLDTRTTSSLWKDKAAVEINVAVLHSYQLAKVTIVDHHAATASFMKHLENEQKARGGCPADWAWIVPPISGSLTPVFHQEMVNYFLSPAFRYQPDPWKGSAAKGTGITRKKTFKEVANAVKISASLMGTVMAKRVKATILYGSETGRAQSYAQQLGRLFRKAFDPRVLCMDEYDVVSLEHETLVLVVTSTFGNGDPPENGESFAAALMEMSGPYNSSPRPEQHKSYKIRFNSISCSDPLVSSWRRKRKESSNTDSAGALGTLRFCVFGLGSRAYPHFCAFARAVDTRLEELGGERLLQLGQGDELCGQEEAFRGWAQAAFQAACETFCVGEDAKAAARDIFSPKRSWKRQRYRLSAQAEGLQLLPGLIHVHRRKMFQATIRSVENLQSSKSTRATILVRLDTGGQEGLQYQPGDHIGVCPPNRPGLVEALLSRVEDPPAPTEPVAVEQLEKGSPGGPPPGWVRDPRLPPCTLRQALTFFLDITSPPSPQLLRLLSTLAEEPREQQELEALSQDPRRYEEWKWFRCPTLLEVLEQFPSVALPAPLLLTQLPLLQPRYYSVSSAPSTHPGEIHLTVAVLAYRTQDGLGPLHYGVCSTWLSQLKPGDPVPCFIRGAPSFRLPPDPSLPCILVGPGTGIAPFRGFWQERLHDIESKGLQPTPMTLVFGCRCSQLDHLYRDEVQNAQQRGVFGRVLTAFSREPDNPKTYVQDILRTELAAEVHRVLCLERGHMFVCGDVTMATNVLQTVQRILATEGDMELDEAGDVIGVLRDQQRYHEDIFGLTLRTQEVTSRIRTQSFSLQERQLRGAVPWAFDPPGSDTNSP
# T3 sequence (P35228 whole entry): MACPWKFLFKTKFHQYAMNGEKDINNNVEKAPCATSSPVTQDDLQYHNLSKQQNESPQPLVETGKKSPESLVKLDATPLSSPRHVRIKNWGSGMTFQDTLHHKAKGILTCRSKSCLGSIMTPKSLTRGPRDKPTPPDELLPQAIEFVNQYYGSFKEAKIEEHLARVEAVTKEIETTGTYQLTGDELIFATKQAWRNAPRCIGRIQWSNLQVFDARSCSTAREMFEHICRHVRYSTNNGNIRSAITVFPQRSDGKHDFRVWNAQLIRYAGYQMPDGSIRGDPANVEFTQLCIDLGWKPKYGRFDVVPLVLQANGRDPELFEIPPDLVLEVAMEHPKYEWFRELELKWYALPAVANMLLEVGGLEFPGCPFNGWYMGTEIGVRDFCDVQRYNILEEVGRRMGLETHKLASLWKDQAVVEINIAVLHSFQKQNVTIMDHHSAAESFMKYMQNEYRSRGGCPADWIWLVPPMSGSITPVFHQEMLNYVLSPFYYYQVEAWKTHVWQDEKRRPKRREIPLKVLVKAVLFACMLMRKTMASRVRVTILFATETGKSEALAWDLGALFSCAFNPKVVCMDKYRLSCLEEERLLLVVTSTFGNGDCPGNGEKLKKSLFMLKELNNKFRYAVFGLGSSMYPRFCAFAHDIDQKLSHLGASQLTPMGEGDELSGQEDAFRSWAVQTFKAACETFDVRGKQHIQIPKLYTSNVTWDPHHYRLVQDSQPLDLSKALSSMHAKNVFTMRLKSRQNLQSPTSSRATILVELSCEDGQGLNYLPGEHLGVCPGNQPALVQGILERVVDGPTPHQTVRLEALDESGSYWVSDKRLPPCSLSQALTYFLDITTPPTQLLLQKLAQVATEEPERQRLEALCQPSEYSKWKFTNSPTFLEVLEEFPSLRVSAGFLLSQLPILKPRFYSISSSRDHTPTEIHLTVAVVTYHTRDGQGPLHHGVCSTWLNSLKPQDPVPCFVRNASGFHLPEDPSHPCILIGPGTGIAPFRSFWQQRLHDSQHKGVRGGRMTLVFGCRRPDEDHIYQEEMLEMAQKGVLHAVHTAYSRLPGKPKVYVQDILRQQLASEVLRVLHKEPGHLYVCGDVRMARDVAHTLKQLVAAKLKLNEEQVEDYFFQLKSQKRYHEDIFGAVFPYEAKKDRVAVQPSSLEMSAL
# T2 sequence (P29475 whole entry): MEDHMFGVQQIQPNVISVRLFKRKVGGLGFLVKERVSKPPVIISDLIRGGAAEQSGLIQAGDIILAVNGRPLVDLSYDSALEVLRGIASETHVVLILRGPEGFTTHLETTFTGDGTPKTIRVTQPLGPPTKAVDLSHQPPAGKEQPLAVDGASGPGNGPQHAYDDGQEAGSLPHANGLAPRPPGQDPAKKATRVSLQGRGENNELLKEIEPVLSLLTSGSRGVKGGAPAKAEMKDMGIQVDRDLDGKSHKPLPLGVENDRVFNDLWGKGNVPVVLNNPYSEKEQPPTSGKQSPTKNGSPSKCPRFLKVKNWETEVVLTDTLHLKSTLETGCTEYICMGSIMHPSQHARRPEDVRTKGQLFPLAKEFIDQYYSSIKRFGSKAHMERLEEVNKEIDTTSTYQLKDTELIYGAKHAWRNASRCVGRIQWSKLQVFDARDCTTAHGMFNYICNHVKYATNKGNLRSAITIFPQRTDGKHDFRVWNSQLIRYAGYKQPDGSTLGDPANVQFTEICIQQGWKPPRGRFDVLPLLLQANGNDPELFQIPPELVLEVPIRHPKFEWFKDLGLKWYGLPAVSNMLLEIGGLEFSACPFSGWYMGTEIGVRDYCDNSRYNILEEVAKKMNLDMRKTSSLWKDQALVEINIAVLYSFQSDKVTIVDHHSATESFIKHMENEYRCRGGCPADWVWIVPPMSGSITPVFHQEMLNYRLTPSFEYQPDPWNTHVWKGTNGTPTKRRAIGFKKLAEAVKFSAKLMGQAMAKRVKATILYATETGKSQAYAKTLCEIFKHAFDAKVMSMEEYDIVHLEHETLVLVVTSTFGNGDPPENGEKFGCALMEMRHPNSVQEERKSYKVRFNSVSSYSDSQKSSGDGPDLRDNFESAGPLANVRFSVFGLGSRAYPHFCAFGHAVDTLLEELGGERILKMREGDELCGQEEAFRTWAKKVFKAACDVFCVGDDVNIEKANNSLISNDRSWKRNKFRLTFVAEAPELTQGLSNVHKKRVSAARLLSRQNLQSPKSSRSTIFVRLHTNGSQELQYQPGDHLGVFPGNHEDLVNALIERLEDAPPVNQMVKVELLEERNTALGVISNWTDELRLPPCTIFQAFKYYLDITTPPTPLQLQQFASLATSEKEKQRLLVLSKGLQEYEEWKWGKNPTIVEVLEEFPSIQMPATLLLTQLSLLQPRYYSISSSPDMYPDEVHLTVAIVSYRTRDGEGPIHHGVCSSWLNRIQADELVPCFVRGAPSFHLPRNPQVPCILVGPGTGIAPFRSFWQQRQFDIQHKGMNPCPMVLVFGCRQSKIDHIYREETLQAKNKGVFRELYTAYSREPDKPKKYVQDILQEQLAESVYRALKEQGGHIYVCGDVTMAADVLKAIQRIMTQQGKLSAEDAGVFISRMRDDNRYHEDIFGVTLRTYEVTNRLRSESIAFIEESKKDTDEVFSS
structure (smiles),measurement,setting,value
"CC(=N)NCC/C=C\CC(C)(N)C(=O)O (racemic) [Example 1, (2R/S,4Z)-2-amino-2-methyl-7-[(1-iminoethyl)amino]-4-heptenoic Acid, Dihydrochloride]",IC50,[1],386 µM
same,IC50,[2],122 µM
same,IC50,[3],34 µM
